In ChEMBL document CHEMBL1201862, “PubChem BioAssay data set” (2004):
Activity calls are given as the source filed them. Rule as the data show it, for most assays here: actives have a measured IC50 and inactives only a lower limit.

Legend:
cells [1] = assay type: functional, cell-based
cells [2] = assay type: functional, cell-based; remark: listed apart in the source
Caspase-3 [3] = biological target: T1, Caspase-3 (Homo sapiens, UniProt P42574); assay type: functional;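 also: Dose-response selectivity test against caspase-3 for candidate inhibitors of sentrin-specific proteases (SENPs)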
T1 sequence (P42574 whole entry): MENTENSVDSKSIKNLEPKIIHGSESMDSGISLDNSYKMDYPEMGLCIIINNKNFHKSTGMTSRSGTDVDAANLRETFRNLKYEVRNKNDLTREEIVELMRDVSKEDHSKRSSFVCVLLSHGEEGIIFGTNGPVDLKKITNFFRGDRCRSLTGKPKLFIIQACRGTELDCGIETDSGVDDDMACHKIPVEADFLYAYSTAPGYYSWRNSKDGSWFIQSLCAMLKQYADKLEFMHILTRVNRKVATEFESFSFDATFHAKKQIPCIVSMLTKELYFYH

[4] = biological target: T2, Sentrin-specific protease 7 (Homo sapiens, UniProt Q9BQF6); assay type: functional;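 also: Luminescence-based dose-response confirmation of ultra-high-throughput screening hits, measuring inhibition of SENP7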
T2 sequence (Q9BQF6 whole entry): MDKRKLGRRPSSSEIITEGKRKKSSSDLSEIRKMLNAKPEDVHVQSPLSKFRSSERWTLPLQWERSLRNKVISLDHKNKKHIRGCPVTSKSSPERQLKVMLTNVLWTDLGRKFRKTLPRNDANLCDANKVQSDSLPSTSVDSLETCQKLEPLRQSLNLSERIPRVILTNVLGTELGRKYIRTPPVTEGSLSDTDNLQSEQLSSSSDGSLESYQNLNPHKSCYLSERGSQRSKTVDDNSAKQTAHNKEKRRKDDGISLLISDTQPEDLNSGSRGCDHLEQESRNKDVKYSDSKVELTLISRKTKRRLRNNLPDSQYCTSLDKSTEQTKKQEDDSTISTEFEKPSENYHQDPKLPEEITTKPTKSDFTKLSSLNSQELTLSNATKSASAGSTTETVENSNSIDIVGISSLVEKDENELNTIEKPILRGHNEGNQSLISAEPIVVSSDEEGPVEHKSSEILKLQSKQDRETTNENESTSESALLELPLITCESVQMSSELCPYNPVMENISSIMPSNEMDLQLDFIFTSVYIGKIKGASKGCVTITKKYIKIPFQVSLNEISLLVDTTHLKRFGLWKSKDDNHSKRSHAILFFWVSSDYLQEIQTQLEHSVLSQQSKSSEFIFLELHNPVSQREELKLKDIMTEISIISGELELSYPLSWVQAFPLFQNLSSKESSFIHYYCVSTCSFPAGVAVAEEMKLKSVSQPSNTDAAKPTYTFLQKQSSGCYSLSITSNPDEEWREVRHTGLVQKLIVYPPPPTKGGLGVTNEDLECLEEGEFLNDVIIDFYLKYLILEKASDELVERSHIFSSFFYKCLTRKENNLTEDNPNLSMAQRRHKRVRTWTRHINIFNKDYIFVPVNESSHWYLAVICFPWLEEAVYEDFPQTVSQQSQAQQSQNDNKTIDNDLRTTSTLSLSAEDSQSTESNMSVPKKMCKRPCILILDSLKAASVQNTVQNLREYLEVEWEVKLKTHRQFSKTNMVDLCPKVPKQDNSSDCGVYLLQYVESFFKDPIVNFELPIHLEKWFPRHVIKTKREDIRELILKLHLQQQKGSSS

[5] = biological target: T3, Sentrin-specific protease 6 (Homo sapiens, UniProt Q9GZR1); assay type: functional;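 also: Luminescence-based dose-response confirmatory assay of SENP6 inhibition, following up an ultra-high-throughput screen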
T3 sequence (Q9GZR1 whole entry): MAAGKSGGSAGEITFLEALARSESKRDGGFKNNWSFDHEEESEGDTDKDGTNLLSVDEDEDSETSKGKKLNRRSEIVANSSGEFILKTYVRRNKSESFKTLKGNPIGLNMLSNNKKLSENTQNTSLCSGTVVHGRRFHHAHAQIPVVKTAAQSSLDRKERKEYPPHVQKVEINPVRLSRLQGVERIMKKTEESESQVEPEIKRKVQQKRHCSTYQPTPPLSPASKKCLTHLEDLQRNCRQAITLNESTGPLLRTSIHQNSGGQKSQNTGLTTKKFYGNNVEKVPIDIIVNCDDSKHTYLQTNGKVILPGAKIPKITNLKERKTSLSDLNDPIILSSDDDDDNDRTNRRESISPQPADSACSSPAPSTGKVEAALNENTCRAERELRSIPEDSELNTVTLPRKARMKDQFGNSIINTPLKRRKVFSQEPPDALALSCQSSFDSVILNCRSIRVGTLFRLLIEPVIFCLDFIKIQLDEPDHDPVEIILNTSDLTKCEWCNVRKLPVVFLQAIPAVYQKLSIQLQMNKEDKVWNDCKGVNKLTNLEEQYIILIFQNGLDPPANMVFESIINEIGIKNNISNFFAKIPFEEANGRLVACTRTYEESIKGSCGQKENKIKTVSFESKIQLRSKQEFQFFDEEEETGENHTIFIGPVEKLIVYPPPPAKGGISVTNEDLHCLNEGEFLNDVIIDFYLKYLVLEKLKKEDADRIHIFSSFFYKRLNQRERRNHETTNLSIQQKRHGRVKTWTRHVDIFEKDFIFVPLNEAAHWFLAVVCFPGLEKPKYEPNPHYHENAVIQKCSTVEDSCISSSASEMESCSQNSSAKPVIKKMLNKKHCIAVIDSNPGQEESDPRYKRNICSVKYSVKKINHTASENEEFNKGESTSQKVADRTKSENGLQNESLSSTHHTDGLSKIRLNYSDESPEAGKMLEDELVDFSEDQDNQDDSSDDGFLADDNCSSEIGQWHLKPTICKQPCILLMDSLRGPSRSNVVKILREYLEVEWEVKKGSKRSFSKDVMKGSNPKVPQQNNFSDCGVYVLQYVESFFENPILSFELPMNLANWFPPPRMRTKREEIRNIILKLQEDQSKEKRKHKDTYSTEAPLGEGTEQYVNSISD

[6] = biological target: T4, Sentrin-specific protease 8 (Homo sapiens, UniProt Q96LD8); assay type: functional;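 also: luminescence read-out of SENP8 inhibition, dose-response confirmation following an ultra-high-throughput screen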
T4 sequence (Q96LD8 whole entry): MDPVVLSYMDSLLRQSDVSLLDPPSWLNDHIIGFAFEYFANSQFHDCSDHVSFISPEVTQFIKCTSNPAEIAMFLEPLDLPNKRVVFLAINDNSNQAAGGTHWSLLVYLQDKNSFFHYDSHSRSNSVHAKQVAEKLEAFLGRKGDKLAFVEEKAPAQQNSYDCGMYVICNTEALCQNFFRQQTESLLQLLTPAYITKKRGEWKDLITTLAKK

[7] = biological target: Heat shock protein HSP 90-alpha (Homo sapiens, UniProt P07900); assay type: functional, organism-based
Caspase-3 [8] = biological target: T1, Caspase-3; test: inhibition of recombinant caspase-3 activity – biochemical, luminescence, set 2, selectivity assay for SENP protease inhibitor project, SAR follow-up (AID 588599); assay type: functional
[9] = biological target: T4, Sentrin-specific protease 8; test: inhibition of sentrin protease 8 – biochemical, luminescence, set 2, SAR follow-up (AID 588601); assay type: functional
[10] = biological target: T2, Sentrin-specific protease 7; test: inhibition of human SENP7 cleavage activity – biochemical, luminescence, set 2, SAR follow-up (AID 588600); assay type: functional
[11] = biological target: T3, Sentrin-specific protease 6; test: inhibition of human SENP6 catalytic domain – biochemical, luminescence, set 2, SAR follow-up (AID 588598); assay type: functional

| Structure (SMILES) | EC50 (cells [1]) | EC50 (cells [2]) | IC50 (Caspase-3 [3]) | IC50 [4] | IC50 [5] | IC50 [6] | AC50 [7] | IC50 (Caspase-3 [8]) | IC50 [9] | IC50 [10] | IC50 [11] |
| --- | --- | --- | --- | --- | --- | --- | --- | --- | --- | --- | --- |
| CCCCNc1nc(N)nc(-c2cc(Cl)ccc2O)n1 | > 350 µM (not active) | 3.49 µM (active) | 44.1 µM (active) | 4.54 µM (active) | > 100 µM (inactive) | > 100 µM (inactive) | 4.87 µM (active) |  |  |  |  |
| COc1ccc2nc(NC(=O)c3ccccc3NS(=O)(=O)c3ccc4c(c3)OCCO4)sc2c1 |  |  |  |  |  |  |  | > 99 µM (inactive) | > 99 µM (inactive) | > 99 µM (inactive) | > 99 µM (inactive) |
